Results: patent US11447825B2, “In-vitro methods for the detection of autoimmune diseases or conditions” (Universitätsmedizin der Johannes Gutenberg-Universität Mainz, priority 2015, dated 2022)

Legend:
Assay type in all cases: cell-based, human
[1] = tested on: T-cells cocultured with Treg; assay: Suppressor assay: T-cell proliferation with or without Treg (3H-Tdr incorporation); conditions: for Treg-mediated suppression in cocultures in presence of exogenous IL-6: HC T-cells with Treg plus IL-6 plus test substance, anti-IL-6R mAb 30 ng/ml, Akt VIII inhibitor 0.1 μM, PPARA agonist 0.01 μM
Experimental: Treg-depleted PBMC (10^5 cells) were stimulated with 0.5 μg/ml anti-CD3 mAb (OKT-3) and cultured in presence or absence of different Treg ratios (Treg:T-cells 1:1 to 1:64) (Jonuleit et al., 2001; Kubach et al., 2007). T-cell proliferation was determined on day three of cultures by addition of 37 kBq/well ^3H-Tdr for additional 16 h. Some experiments were performed by supplementing cultures with neutralizing mAb against anti-IL-6R (30 ng/ml; Tocilizumab; Roacterma; Roche) or supplemented with IL-6 (100 ng/ml or 1000 IU/ml; CellGenix). PKB/c-Akt VIII inhibitor (0.1 μM; Calbiochem, Isozyme-selective, Akt1/2) was added into individual assays. Some experiments were performed by supplementing cultures with PPARA antagonists (GW6471, Tocris, 0.05 μM) or PPARA agonists (GW7646, Tocris, 0.01 μM) together with IL-6 (100 ng/ml or 1000 IU/ml; CellGenix). For flow cytometric analysis of proliferating T-cells Treg-depleted PBMC were washed in warm PBS and stained with 1 μM CFSE and afterwards cocultured with or without Treg (ratio 1:1) and stimulated with 0.5 μg/ml anti-CD3 mAb. Proliferation was assessed on day 3 after excluding dead cells. Analysis was performed on LSRII (BD Bioscience) and evaluated using DIVA software (BD Bioscience).

PKB/c-Akt = PKB/c-Akt phosphorylation in CD3+ T-cells by flow cytometry; conditions: HC T-cells; for phosphorylation of PKB/c-Akt in presence of IL-6: 24 h with IL-6 plus IL-6R mAb or VIII inhibitor (0.01, 0.1 and 1 μM)
Experimental: For surface staining of PBMC or T-cells indicated antibodies were incubated for 30 min at 4° C. and washed twice with PBS. Stained cells were measured on LSRII with FACS Diva Software (BD Bioscience). To detect phosphorylated PKB/c-Akt (anti-Akt, pS473, BD Phosflow), cells were fixed at 37° C. (BD Cytofix™ Buffer); permeabilized (BD™ Phosflow Perm Buffer) washed twice with BD Pharmingen™ stain buffer and stained for the indicated antibody according to manufacturer's instructions.
A) Upper panel: CD3^+ T-cells and Treg were coculture in presence (grey) or absence (black) of IL-6 and stimulated with anti-CD3 mAb. […] One of four independent experiments is shown. Lower panel: PBMC from HC were cultured for 24 h with (grey) or without (black) IL-6, washed extensively and CD4^+ or CD8^+ T-cells were isolated. Cells were left unstimulated or were activated with plate-bound anti-CD3 and anti-CD28 mAb for four hours. Shown are expression levels of (PPARGC1A) PGC-1α mRNA in activated CD4^+ and CD8^+ T-cells (TC) normalized to resting T-cells. β-Actin used as housekeeping gene. Bars represent mean of four experiments, p-values relative to TC without IL-6. B) PKB/c-Akt phosphorylation was analyzed by flow cytometry within CD3^+ T-cells after 24 h of culture with (black) or without IL-6 (grey). C) Flow cytometric determination of PKB/c-Akt phosphorylation. […] Shown is the mean fluorescence intensity (MFI) of pPKB/c-Akt in T-cells, one representative result of five independent experiments. […] PKB/c-Akt phosphorylation was analyzed by flow cytometry within CD3^+ T-cells. […]
A) PBMC from HC were cultured for 24 h with media (black), PPARα antagonist (blue) or PPARα agonist (green), washed extensively and expression level of PGC-1α mRNA in activated T-cells was detected by qRT-PCR. β-Actin used as housekeeping gene. […] B) PKB/c-Akt phosphorylation was analysed by flow cytometry within CD3^+ T-cells after 24 h of culture with media (black), PPARα agonist (green) or PPARα antagonist (blue). […]

T-cells = assay: Toxicity of PPARα modifiers in cell culture; conditions: incubation with PPARα antagonist (Supplemental FIG. 4)
Experimental: Human cells were cultured in X-VIVO-15 (Lonza, Belgium). Flow cytometric analysis was performed using the following antibodies: anti-human CD3 (SK7), anti-human CD3 (UCHT1), anti-human CD4 (RPA-T4), anti-human CD8 (SK1), anti-human CD14 (M5E2), anti-human CD19 (HIB19), anti-human CD25 (M-A251), all from BD Pharmingen, anti-human CD8 (BW 135/80, Miltenyi Biotec), Fluorokine® biotinylated human Interleukin-6 (R&D systems). Cell viability during flow cytometric analysis was determined using 7-AAD and eFluor506 (eBioscience). For blockade experiments, cultures were supplemented with neutralizing antibody against anti-IL-6R (Tocilizumab), PKB/c-Akt VIII inhibitor (Calbiochem), PPARA antagonists (GW6471, Tocris, 0.05 μM) or PPARA agonists (GW7646, Tocris, 0.01 μM) together with IL-6 (100 ng/ml or 1000 IU/ml; CellGenix).

PGC-1α = PGC-1α (PPARGC1A) mRNA expression in activated T-cells by qRT-PCR; conditions: HC PBMC 24 h with IL-6, then anti-CD3/anti-CD28 for four hours; normalized to resting T-cells
Experimental: RNA was extracted from 2×10^6 cells using Rneasy Kit (Qiagen) according to manufacturer's instructions. cDNA was generated by reverse transcription with Sensiscript RT Kit (Qiagen) and amplified by quantitative RT-PCR (qRT-PCR, 7300 Real Time PCR System (Applied Biosystem) and the QuantiFAST PCR Kit (Qiagen). Relative IL-6 mRNA (QuantiTect Primer, Qiagen) expression levels were normalized to EF1-α or β-Actin. Relative PPARGC1α, IRF8, FGF19, HNF4A, Hdac, RORA mRNA was analyzed with QuantiTect Primer Assay (Qiagen) according to manufacturer's instructions and expression levels were normalized to β-ACT.
A) Upper panel: CD3^+ T-cells and Treg were coculture in presence (grey) or absence (black) of IL-6 and stimulated with anti-CD3 mAb. […] One of four independent experiments is shown. […] B) PKB/c-Akt phosphorylation was analyzed by flow cytometry within CD3^+ T-cells after 24 h of culture with (black) or without IL-6 (grey). […] Shown is the mean fluorescence intensity (MFI) of pPKB/c-Akt in T-cells, one representative result of five independent experiments. […] PKB/c-Akt phosphorylation was analyzed by flow cytometry within CD3^+ T-cells. […]
A) PBMC from HC were cultured for 24 h with media (black), PPARα antagonist (blue) or PPARα agonist (green), washed extensively and expression level of PGC-1α mRNA in activated T-cells was detected by qRT-PCR. β-Actin used as housekeeping gene. […]

anti-IL-6R mAb: neutralizing mAb against anti-IL-6R (Tocilizumab; Roacterma; Roche)
Treg-mediated suppression in cocultures in presence of exogenous IL-6 [1]: restored IL-6-induced Treg resistance | phosphorylation of PKB/c-Akt in presence of IL-6 (PKB/c-Akt): inhibited phosphorylation of PKB/c-Akt

O=c1[nH]c2ccccc2n1C1CCN(Cc2ccc(-c3nc4cc5[nH]cnc5cc4nc3-c3ccccc3)cc2)CC1 [c-Akt inhibitor VIII]
Treg-mediated suppression in cocultures in presence of exogenous IL-6 [1]: restored IL-6-induced Treg resistance | phosphorylation of PKB/c-Akt in presence of IL-6 (PKB/c-Akt): inhibited phosphorylation of PKB/c-Akt

CCC(=O)NC[C@H](Cc1ccc(OCCc2nc(-c3ccccc3)oc2C)cc1)N/C(C)=C\C(=O)c1ccc(C(F)(F)F)cc1 [PPARα antagonist]
toxicity (T-cells): without inducing toxicity | Treg resistance in cocultures without IL-6 ([1]; T-cells and Treg, anti-CD3 mAb, PPARA antagonist 0.05 μM alone): Treg resistance could be induced | T-cell proliferation in absence of Treg ([1]; no Treg, agonist 0.01 μM, antagonist 0.05 μM): did not influence the T-cell proliferation significantly

IL-6: exogenous cytokine IL-6 (100 ng/ml or 1000 IU/ml; CellGenix)
control of T-cells by Treg in suppressor cocultures ([1]; Treg-sensitive T-cells from HC with Treg, anti-CD3 mAb, IL-6 supplemented (100 ng/ml or 1000 IU/ml), day three): prevented efficient control of T-cells by Treg | phosphorylation of PKB/c-Akt in T-cells (PKB/c-Akt; 24 h culture with IL-6): enhanced phosphorylation of PKB/c-Akt | PGC-1α expression in activated CD4+ T-cells (PGC-1α): down regulated PGC-1α expression | PGC-1α expression in activated CD8+ T-cells (PGC-1α): prevented the upregulation of PGC-1α
